Measured values: patent US20040106120A1, “Diagnosis and treatment of disease” (priority 2000, published 2004)

What was measured:
[1] = system: corneodesmosomes in stratum corneum tape strips; experiment: Treatment of tape strips from psoriatic skin with proteases, corneodesmosome density by electron microscopy; set-up: species or system human; details: 22-50 nM recombinant SCCE or SCTE, 1-6 h at 37° C
Method: Tape strips are obtained according to a method described by Guerrin et al, 1998.
Small pieces of tape strips from control patients along with patients suffering from the skin conditions eczema, psoriasis, dermatitis and psoriasis are fixed for 2 h at 4° C. in Karnovsky fixative (2% paraformaldehyde, 2.5% gluteraldehyde in 0.1M phosphate buffer, pH 7.4). The samples are then washed three times in 0.1M phosphate buffer (pH7.4) containing 10% sucrose for 30 minutes each at 4° C.
Secondary fixation is carried out in aqueous 2% osmium tetroxide solution for 1 hour at room temperature. Dehydration is through a graded series of ethanol at room temperature (75% ethanol for 15 minutes; 95% ethanol for 15 minutes; 2 washes of 100% ethanol for 15 minutes; 100% ethanol dried over anhydrous copper sulphate for 15 minutes).
For resin embedding, samples are first placed in the intermediate solvent, propylene oxide, for two changes of 15 minutes duration. This is followed by infiltration in a 50:50 mixture of propylene oxide:araldite resin overnight at room temperature. […]
Ultrathin sections (70-90 nm) are cut on an ultramicrotome. […] Electron micrographs are recorded on Agfa Scientific 23D56 EM film.
Corneodesmosome density (area occupied by corneodesmosomes divided by total area of micrograph) is measured on electron micrographs of tape strips of each condition. […]

Plakoglobin = biological target: T1, Plakoglobin (Homo sapiens, UniProt P14923); experiment: Cleavage of adhesion proteins from human epidermis by recombinant SCCE/SCTE (immunoblot); type: biochemical; details: human epidermis protein extract incubated with active recombinant enzyme at 37 C
T1 construct: The native form of plakoglobin has a molecular weight of between 85 kDa and 75 kDa; from tissue; host or cells: human epidermis (TENP-40 buffer extract)
T1 sequence (P14923 1-745): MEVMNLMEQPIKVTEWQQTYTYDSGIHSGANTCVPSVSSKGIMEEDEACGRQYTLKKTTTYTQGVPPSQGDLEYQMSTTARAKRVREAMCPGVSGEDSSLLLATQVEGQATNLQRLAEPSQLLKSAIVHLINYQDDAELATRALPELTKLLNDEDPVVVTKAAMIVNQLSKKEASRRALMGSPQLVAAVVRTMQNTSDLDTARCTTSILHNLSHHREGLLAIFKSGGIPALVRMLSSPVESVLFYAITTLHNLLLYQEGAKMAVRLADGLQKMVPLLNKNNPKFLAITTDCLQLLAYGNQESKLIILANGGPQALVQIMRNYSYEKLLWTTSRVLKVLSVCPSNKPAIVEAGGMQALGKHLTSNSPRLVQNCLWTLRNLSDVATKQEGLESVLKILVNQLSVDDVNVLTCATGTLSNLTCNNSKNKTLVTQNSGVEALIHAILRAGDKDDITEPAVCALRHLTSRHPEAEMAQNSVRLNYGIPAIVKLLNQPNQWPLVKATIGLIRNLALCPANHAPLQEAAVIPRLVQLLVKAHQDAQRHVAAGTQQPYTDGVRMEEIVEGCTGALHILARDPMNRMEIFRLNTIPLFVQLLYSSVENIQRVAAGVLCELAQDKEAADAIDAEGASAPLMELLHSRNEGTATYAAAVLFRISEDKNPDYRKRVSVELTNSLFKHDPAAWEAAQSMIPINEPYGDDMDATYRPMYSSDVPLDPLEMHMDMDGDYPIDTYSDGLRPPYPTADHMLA
Method: (§1) Recombinant ProSCCE is produced and purified as described above. Recombinant ProSCCE is activated with agarose-bound trypsin, as described in Brasttsand & Egelrud, 1999.
(§2) Proteins are extracted from human epidermis in the presence of a detergent (TENP-40 buffer extract) and incubated with active SCCE for 37 C. for 4 h. The reactions are stopped by boiling for 2 mins after Laemmli's sample buffer is added. The proteins are immunoblotted with antibodies against corneodesmosomal proteins.

Desmoplakin = experiment: as above; type: biochemical; details: human epidermis protein extract incubated with active recombinant enzyme at 37 C
Method: as §1, §2

Envoplakin = biological target: T2, Envoplakin (Homo sapiens, UniProt Q92817); experiment: as above; type: biochemical; details: human epidermis protein extract incubated with active recombinant enzyme at 37 C
T2 construct: The native form of Envoplakin has a molecular weight of between 124-209 kDa; from tissue; host or cells: human epidermis (TENP-40 buffer extract)
T2 sequence (Q92817 whole entry): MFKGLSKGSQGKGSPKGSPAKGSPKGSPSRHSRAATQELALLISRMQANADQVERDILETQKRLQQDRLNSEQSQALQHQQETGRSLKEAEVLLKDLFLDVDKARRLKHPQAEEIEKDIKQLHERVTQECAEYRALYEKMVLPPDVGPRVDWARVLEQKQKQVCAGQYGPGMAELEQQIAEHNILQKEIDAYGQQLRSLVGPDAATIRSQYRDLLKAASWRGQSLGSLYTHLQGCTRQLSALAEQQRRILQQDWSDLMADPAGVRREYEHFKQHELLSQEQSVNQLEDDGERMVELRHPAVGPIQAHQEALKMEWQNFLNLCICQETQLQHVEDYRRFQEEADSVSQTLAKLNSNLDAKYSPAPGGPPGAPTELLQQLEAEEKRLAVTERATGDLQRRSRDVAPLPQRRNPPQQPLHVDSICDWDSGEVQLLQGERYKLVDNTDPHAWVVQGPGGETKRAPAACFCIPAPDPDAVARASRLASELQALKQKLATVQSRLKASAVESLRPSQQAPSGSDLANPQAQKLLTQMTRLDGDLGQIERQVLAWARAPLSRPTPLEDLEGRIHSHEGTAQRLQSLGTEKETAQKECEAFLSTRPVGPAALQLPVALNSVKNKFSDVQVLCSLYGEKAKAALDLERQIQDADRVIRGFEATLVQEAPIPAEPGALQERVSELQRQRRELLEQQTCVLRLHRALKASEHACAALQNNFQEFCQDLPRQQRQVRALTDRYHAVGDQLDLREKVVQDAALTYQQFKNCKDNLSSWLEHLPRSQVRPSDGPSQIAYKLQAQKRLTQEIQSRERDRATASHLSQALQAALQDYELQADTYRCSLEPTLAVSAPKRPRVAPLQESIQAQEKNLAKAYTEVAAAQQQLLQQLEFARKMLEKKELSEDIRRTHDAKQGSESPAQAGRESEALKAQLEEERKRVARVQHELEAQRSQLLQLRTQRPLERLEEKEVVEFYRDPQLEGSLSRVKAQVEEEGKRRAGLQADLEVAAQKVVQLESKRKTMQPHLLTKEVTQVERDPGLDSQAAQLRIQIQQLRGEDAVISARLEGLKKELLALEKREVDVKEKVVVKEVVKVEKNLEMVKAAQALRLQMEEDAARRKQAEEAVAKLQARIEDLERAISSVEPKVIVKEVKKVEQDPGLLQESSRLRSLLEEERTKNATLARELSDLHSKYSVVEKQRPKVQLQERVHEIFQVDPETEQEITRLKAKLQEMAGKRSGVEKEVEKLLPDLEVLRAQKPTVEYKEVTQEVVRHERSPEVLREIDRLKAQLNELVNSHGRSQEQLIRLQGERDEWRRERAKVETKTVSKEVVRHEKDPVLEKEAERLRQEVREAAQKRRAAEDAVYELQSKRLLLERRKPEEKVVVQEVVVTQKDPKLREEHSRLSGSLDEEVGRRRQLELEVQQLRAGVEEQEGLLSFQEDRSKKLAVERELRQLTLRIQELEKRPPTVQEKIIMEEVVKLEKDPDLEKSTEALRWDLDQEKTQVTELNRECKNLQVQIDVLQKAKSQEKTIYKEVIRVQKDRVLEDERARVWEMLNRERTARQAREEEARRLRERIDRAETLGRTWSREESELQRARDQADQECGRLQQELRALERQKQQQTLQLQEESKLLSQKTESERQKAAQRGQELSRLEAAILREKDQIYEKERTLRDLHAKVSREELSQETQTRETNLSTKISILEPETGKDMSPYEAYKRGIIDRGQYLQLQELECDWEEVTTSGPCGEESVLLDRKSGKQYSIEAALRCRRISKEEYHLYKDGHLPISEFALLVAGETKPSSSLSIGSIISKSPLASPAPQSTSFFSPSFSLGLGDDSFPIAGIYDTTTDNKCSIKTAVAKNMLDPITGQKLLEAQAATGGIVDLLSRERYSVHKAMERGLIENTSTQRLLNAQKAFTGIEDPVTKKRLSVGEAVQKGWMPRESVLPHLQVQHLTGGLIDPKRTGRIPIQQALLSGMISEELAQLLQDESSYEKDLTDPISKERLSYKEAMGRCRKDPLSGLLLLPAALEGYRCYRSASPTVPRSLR
Method: as §1, §2

Desmocollin = experiment: as above; type: biochemical; details: human epidermis protein extract incubated with active recombinant enzyme at 37 C
Method: as §1, §2

Desmoglein = experiment: as above; type: biochemical; details: human epidermis protein extract incubated with active recombinant enzyme at 37 C
Method: as §1, §2

Corneodesmosin = biological target: T3, Corneodesmosin (Homo sapiens, UniProt Q15517); experiment: as above; type: biochemical; details: human epidermis protein extract incubated with active recombinant enzyme at 37 C
T3 construct: The native form of corneodesmosin has a molecular weight of between 50 and 56 kDa; from tissue; host or cells: human epidermis (TENP-40 buffer extract)
T3 sequence (Q15517 33-529): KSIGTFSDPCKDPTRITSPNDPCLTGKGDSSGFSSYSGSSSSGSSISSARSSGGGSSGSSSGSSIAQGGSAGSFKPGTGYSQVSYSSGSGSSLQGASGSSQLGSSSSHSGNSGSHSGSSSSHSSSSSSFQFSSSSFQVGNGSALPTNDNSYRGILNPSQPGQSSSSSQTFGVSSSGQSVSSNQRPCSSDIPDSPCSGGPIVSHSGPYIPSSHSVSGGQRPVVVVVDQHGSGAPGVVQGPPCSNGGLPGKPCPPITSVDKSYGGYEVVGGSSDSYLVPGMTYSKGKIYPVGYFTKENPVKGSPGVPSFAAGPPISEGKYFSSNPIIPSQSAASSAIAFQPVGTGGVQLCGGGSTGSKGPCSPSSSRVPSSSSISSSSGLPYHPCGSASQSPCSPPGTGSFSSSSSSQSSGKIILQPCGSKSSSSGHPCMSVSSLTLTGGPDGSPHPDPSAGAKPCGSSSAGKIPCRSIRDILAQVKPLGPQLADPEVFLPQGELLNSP
Method: as §1, §2

proteolysis of Plakoglobin (Plakoglobin): proteolysed
proteolysis of Envoplakin (Envoplakin): proteolysed
proteolysis of Corneodesmosin (Corneodesmosin): proteolysed
Substance: SCTE: recombinant Stratum Corneum Tryptic Enzyme expressed in an active form
number of corneodesmosomes in treated versus untreated stratum corneum [1]: decrease significantly
proteolysis of Desmoplakin (Desmoplakin): proteolysed
proteolysis of Desmocollin (Desmocollin): proteolysed
proteolysis of Desmoglein (Desmoglein): proteolysed
